Values quoted from earlier work in article PMC6804253, “Predicting and Experimentally Validating Hot-Spot Residues at Protein–Protein Interfaces” (ACS Chemical Biology, 2019).
Where two headings read alike, the source gives them in different places.

Test system: PPIs of the SKEMPI data set (by PDBID)
Details: ref SKEMPI, cited from earlier work; for sk_class (class of SKEMPI experimental ΔΔG): class by ΔΔG threshold 4.184 kJ/mol; for sk_ddG_kJ (SKEMPI experimental ΔΔG, mutation to alanine) / sk_ddG_kJ / sk_ddG_kJ (SKEMPI experimental ΔΔG): single mutation to alanine; for sk_ddG_kJ (SKEMPI experimental ΔΔG, mutation to alanine): residue group in r_group; for sk_ddG_kJ: SKEMPI experimental ΔΔG of binding; for sk_class: class of the SKEMPI experimental ΔΔG
[1] = complex given by PDBID, residue group SQNT
[2] = sheet sortedByGroup, r_group FAMILYVW

| Molecule | sk_ddG_kJ (PPI given by PDBID) [kJ] | sk_class | also measured |
| --- | --- | --- | --- |
| 1A22 PA48A |  |  | sk_class (class of SKEMPI experimental ΔΔG): Neutral (neutral (little effect) 4.184 kJ/mol < ΔΔG > −4.184 kJ/mol); sk_ddG_kJ (SKEMPI experimental ΔΔG, mutation to alanine) (complex given by PDBID): 1.67 kJ |
| 1A22 PA59A |  |  | sk_class (class of SKEMPI experimental ΔΔG): Neutral (neutral (little effect) 4.184 kJ/mol < ΔΔG > −4.184 kJ/mol); sk_ddG_kJ (SKEMPI experimental ΔΔG, mutation to alanine) (complex given by PDBID): 1.59 kJ |
| 1A22 PA61A |  |  | sk_class (class of SKEMPI experimental ΔΔG): Positive (positive (a hot residue) ΔΔG ≥ 4.184 kJ/mol); sk_ddG_kJ (SKEMPI experimental ΔΔG, mutation to alanine) (complex given by PDBID): 5.02 kJ |
| 1DQJ DC101A |  |  | sk_ddG_kJ (complex by PDBID): 6.07 kJ |
| 1DQJ KC96A |  |  | sk_ddG_kJ (complex by PDBID): 25.77 kJ |
| 1DQJ KC97A |  |  | sk_ddG_kJ (complex by PDBID): 14.73 kJ |
| 1DQJ LC75A |  |  | sk_ddG_kJ (SKEMPI experimental ΔΔG) (PPI given by PDBID, sheet sortedByGroup, r_group FAMILYVW): 6.07 kJ |
| 1DQJ RC21A |  |  | sk_ddG_kJ (complex by PDBID): 4.90 kJ |
| 1DQJ SC100A |  |  | sk_ddG_kJ (SKEMPI experimental ΔΔG) [1]: 3.26 kJ |
| 1DQJ TC89A |  |  | sk_ddG_kJ (SKEMPI experimental ΔΔG) [1]: 3.51 kJ |
| 1DQJ WC62A |  |  | sk_ddG_kJ (SKEMPI experimental ΔΔG) [2]: 3.18 kJ |
| 1DQJ WC63A |  |  | sk_ddG_kJ (SKEMPI experimental ΔΔG) [2]: 5.65 kJ |
| 1DQJ YC20A |  |  | sk_ddG_kJ (SKEMPI experimental ΔΔG) [2]: 13.77 kJ |
| 1GC1 NC30A | 0.71 | Neutral (neutral (little effect) 4.184 kJ/mol < ΔΔG > −4.184 kJ/mol) |  |
| 1GC1 NC32A | 0.75 | Neutral (neutral (little effect) 4.184 kJ/mol < ΔΔG > −4.184 kJ/mol) |  |
| 1GC1 NC73A | -0.46 | Neutral (neutral (little effect) 4.184 kJ/mol < ΔΔG > −4.184 kJ/mol) |  |

| Molecule | sk_ddG_kJ (PPI given by PDBID) [kJ] | sk_class | also measured |
| --- | --- | --- | --- |
| 1GC1 QC20A | -0.08 | Neutral (neutral (little effect) 4.184 kJ/mol < ΔΔG > −4.184 kJ/mol) |  |
| 1GC1 QC33A | 0.46 | Neutral (neutral (little effect) 4.184 kJ/mol < ΔΔG > −4.184 kJ/mol) |  |
| 1GC1 QC40A | -1.72 | Neutral (neutral (little effect) 4.184 kJ/mol < ΔΔG > −4.184 kJ/mol) |  |
| 1GC1 QC64A | 1.84 | Neutral (neutral (little effect) 4.184 kJ/mol < ΔΔG > −4.184 kJ/mol) |  |
| 1GC1 QC94A | -0.46 | Neutral (neutral (little effect) 4.184 kJ/mol < ΔΔG > −4.184 kJ/mol) |  |
| 1GC1 SC23A | 1.21 | Neutral (neutral (little effect) 4.184 kJ/mol < ΔΔG > −4.184 kJ/mol) |  |
| 1GC1 SC31A | 0.46 | Neutral (neutral (little effect) 4.184 kJ/mol < ΔΔG > −4.184 kJ/mol) |  |
| 1GC1 SC60A | -0.38 | Neutral (neutral (little effect) 4.184 kJ/mol < ΔΔG > −4.184 kJ/mol) |  |
| 1GC1 TC15A | 1.34 | Neutral (neutral (little effect) 4.184 kJ/mol < ΔΔG > −4.184 kJ/mol) |  |
| 1GC1 TC17A | -0.54 | Neutral (neutral (little effect) 4.184 kJ/mol < ΔΔG > −4.184 kJ/mol) |  |
| 1VFB IC124A |  |  | sk_class (class of SKEMPI experimental ΔΔG): Positive (positive (a hot residue) ΔΔG ≥ 4.184 kJ/mol) |
| 1VFB LC129A |  |  | sk_class (class of SKEMPI experimental ΔΔG): Neutral (neutral (little effect) 4.184 kJ/mol < ΔΔG > −4.184 kJ/mol) |
| 1VFB SC24A | 3.56 | Neutral (neutral (little effect) 4.184 kJ/mol < ΔΔG > −4.184 kJ/mol) |  |
| 1VFB VC120A |  |  | sk_class (class of SKEMPI experimental ΔΔG): Neutral (neutral (little effect) 4.184 kJ/mol < ΔΔG > −4.184 kJ/mol) |
| 1VFB YC23A |  |  | sk_class (class of SKEMPI experimental ΔΔG): Neutral (neutral (little effect) 4.184 kJ/mol < ΔΔG > −4.184 kJ/mol) |
| 1KTZ IB125A (protein, UniProt P37173 23-166, looked up, variant I125A, extracellular domain) extracellular domain: TIPPHVQKSVNNDMIVTDNNGAVKFPQLCKFCDVRFSTCDNQKSCMSNCSITSICEKPQEVCVAVWRKNDENITLETVCHDPKLPYHDFILEDAASPKCIMKEKKKPGETFFMCSCSSDECNDNAIFSEEYNTSNPDLLLVIFQ |  |  | sk_class (class of SKEMPI experimental ΔΔG): Neutral (neutral (little effect) 4.184 kJ/mol < ΔΔG > −4.184 kJ/mol); sk_ddG_kJ (SKEMPI experimental ΔΔG, mutation to alanine) (complex given by PDBID): 2.26 kJ |
